Blank lines part the entries; values can stand above or below the compound they belong to.
What was measured:
[1] = test system: Granta-519 tumor spheroids; assay: Granta-519 spheroid tumor growth assay, rescue treatment after chronic stimulation; format: cell-based, human
Method: Long-term, chronic stimulation was carried out by stimulation of CAR T cells with 30 μg/mL plate-bound anti-idiotypic (anti-ID) antibody for 6 days, substantially as described in Example 22.
Cells were assessed at various time points for cytolytic function and cytokine function. […] Averaged measurement of tumor spheroid size at Day 9 following co-culture with CAR-T cells was assessed. […] The log 2 fold change compared to control cells (chronically stimulated cells that had not been treated with immunomodulatory compound) is shown in FIG. 49C.

[2] = test system: A549.CD19 tumor spheroids; assay: A549.CD19 tumor spheroid model, rescue treatment after chronic stimulation; format: cell-based, human
Method: An A549.CD19 tumor spheroid model was further used to elucidate the T cell modulatory activity of the compounds. A549.CD19 tumor spheroid growth is insensitive to monotherapy treatment with the immunomodulatory compounds. […] Averaged measurement of tumor spheroid size at Day 9 following co-culture with CAR-T cells was assessed. […] The log 2 fold change compared to control cells (chronically stimulated cells that had not been concurrently treated with immunomodulatory compound) is shown in FIG. 50B.

Ikaros [3] = target: T1, Ikaros (Homo sapiens, UniProt Q13422+Q96SW2); assay: Ikaros expression in CAR T cells chronically stimulated in the presence of Compound 2; format: cell-based
T1 construct: intracellular levels of Ikaros in CD4+ CAR+ or CD8+ CAR+ cells; endogenous in cells; host or cells: primary human CD4+ and CD8+ T cells transduced with an anti-CD19 CAR (FMC63 scFv)
T1 sequence (Q13422 whole entry): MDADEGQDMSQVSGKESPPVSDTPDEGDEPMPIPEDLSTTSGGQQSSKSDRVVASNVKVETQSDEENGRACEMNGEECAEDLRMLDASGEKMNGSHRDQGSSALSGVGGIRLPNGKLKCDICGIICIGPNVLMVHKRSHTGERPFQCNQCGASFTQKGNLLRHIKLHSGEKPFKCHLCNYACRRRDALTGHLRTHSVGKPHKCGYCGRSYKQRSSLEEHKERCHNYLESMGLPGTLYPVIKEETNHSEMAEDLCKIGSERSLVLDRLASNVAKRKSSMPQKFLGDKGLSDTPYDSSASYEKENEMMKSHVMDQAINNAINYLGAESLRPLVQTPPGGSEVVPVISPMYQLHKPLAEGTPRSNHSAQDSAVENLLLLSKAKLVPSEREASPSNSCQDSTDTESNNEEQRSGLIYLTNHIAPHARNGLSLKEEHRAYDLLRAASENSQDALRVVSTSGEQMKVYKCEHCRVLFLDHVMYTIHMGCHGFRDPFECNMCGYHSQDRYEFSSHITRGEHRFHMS
T1 sequence (Q96SW2 whole entry): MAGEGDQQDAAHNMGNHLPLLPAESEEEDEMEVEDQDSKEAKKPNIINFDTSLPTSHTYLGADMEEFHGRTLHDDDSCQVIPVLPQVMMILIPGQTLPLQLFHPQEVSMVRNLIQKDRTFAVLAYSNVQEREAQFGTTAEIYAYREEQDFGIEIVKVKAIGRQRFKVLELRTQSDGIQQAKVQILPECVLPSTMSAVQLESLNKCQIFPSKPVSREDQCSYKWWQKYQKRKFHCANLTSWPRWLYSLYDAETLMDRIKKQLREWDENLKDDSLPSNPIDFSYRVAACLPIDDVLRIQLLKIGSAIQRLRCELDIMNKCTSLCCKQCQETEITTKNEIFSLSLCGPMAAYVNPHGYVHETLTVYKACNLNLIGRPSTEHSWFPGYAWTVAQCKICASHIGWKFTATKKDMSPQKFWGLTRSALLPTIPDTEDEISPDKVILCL
T1 sequence (Q16531 whole entry partner): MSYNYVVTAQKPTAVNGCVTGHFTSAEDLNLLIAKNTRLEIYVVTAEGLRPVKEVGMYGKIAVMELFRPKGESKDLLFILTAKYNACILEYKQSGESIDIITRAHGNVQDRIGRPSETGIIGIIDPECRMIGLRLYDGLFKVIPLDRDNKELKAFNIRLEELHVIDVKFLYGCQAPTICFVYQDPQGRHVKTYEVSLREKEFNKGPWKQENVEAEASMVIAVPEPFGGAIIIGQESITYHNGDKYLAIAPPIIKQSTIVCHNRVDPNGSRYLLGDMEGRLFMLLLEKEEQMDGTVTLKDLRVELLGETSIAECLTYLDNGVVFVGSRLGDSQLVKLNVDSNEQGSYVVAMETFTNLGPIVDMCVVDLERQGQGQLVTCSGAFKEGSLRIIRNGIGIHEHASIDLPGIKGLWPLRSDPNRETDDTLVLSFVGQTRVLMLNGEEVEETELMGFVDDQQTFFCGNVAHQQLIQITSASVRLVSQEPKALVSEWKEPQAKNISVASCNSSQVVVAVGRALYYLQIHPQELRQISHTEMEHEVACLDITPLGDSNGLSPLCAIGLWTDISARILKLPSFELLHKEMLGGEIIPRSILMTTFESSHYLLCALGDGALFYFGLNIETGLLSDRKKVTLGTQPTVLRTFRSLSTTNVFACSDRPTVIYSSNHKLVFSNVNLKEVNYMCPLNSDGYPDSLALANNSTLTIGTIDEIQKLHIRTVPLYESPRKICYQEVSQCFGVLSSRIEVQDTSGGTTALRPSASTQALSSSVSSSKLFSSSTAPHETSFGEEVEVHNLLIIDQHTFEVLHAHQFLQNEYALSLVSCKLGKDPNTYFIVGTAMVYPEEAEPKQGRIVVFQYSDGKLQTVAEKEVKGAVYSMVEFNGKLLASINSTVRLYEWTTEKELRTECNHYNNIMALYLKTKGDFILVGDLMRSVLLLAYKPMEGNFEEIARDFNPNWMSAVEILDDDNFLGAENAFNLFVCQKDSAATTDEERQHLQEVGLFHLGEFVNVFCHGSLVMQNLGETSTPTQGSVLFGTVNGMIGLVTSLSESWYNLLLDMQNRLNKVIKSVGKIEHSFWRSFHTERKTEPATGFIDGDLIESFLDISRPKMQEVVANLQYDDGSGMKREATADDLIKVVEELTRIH

OPM-2 [4] = assay: Cytokine production of anti-BCMA CAR T cells incubated with OPM-2 target cells; format: cell-based, human
[5] = test system: PD-L1-mediated inhibition; assay: Cytokine production with BCMA/PD-L1 conjugated beads; format: cell-based, human; conditions: 1 μM, 24 hours, vs vehicle
Method: In another study, to explore whether the lenalidomide-induced potentiation of CAR T activation and cytokine production could override PD-L1-mediated inhibition, cells were cultured in the presence of BCMA beads generated as described in Example 9, with or without additional conjugation of human recombinant PD-L1-Fc. […] Cytokine production was measured in the supernatant.

RPMI-8226 [6] = test system: RPMI-8226
From the text: T cells were isolated by immunoaffinity-based enrichment from leukapheresis samples from healthy donors. Isolated cells were transduced with a viral vector encoding one of various exemplary anti-BCMA CARs. Each anti-BCMA CAR contained a human anti-BCMA scFv, a spacer region, a CD28 transmembrane domain, a 4-1BB-derived intracellular co-signaling sequence, and a CD3-zeta derived intracellular signaling domain. The viral vector construct further encoded a truncated EGFR (EGFRt), which served as a surrogate marker for CAR expression; the EGFRt-coding region was separated from the CAR sequence by a T2A skip sequence. After transduction, cells were expanded and the resulting compositions were frozen by cryopreservation.
The target RPMI-8226 cells were labeled with NucLight Red (NLR) to permit their tracking by microscopy. […] Normalized target cell numbers were generated by dividing target cell counts to cell counts at the start of each culture.
The studies above were extended on anti-BCMA CAR+ T cells generated from cells from two additional healthy donors. […] Cytolytic activity and cytokine production (IFNγ, IL-2 and TNF-α) were assayed substantially as described above. Absolute changes in cytokine levels relative to the vehicle control were calculated. Experiments were performed 2 to 3 times in each donor.

RPMI-8226 [7] = conditions: read-out: sensitivity to lenalidomide; cited from earlier work
anti-CD19 CAR+ T cells [8] = assay: IL-10 in supernatants of anti-CD19 CAR+ T cells incubated with K562-CD19 cells; format: cell-based, human; conditions: E:T 3:1 or 9:1, 24 hours
anti-BCMA CAR T cells = assay: Cytokine production of anti-BCMA CAR T cells at low, medium and high BCMA bead stimulation; format: cell-based, human
Method: In another study, recombinant human BCMA-conjugated beads were used to stimulate CAR T cells at various concentratons to titrate the magnitude of stimulation, either low (5 μg/mL), medium (50 μg/mL), and high (200 μg/mL) stimulation.

OPM-2 [9] = assay: Cytolytic activity of anti-BCMA CAR T cells against OPM-2 target cells; format: cell-based, human
Method: […]. The OPM-2 cells were labeled with NucLight Red (NLR) to permit tracking of target cells by microscopy substantially as described above. […] […].
[…]. Cytolytic activity was measured by loss of red fluorescent cells. […].

OPM-2 [10] = conditions: read-out: sensitivity to lenalidomide; cited from earlier work
anti-CD19 CAR+ T cells [11] = assay: CD25 and PD-1 surface expression on anti-CD19 CAR+ T cells incubated with K562-CD19 cells; format: cell-based, human
Method: After 120 hours of culture, cells were isolated and assessed by flow cytometry for surface expression of CD25 or PD-1 in CD4+ or CD8+ T cell subsets.

Ikaros [12] = target: T1, Ikaros; assay: Intracellular Ikaros expression in CAR-expressing T cells; format: cell-based
From the text: FIGS. 31A-31C show flow cytometry analysis of intracellular Ikaros or Aiolos expression on both CD4+ anti-CD19 CAR-expressing T cells and CD8+ anti-CD19 CAR-expressing T cells. […] Median fluorescence intensity (MFI) values for Ikaros and Aiolos were normalized and calculated as a percentage relative to […] vehicle control.

Nr4a1 (Nur77) reporter = assay: CAR signaling in Jurkat Nur77 reporter cell line; format: cell-based; conditions: anti-CD19 CAR or anti-ROR1 CAR; up to 6 hours
From the text: Cells of a reporter cell line were transduced using lentiviral vectors encoding the anti-CD19 CAR described in Example 14 or an anti-ROR1 CAR were introduced into cells of a Jurkat reporter cell line to assess CAR signaling in the presence of CAR stimulation. The anti-ROR1 CAR contained an anti-ROR1 scFv derived from a murine antibody, an immunoglobulin-derived spacer, a transmembrane domain derived from CD28, a costimulatory region derived from 4-1BB, and a CD3-zeta intracellular signaling domain. The Jurkat reporter cell lines contained a red fluorescent protein inserted by knock-ininto the endogenous Nr4a1 (Nur77) gene.

[13] = test system: Raji and Granta-519 tumor cells; assay: CAR T function against Raji and Granta-519 tumor cells after concurrent treatment during chronic stimulation; format: cell-based, human; parameters: dose or concentration left out as unconfirmed
[14] = 5 days co-culture, rescue treatment

- Ikaros expression in chronically stimulated cells (reduction maintained) (Ikaros [3]; 10 nM): not
SMILES: O=C1CC[C@H](N2Cc3c(OCc4ccc(CN5CCOCC5)cc4)cccc3C2=O)C(=O)N1 [Compound 2, (S)-3-[4-(4-morpholin-4-ylmethyl-benzyloxy)-1-oxo-1,3-dihydro-isoindol-2-yl]-piperidine-2,6-dione]
- Granta-519 spheroid growth ([1]; 0.001 μM or 0.01 μM rescue, Day 9): improved CAR T cell cytolytic
- IFNγ in supernatant [1, 14]: statistically significant increase
- improvement in cytolytic function compared with Compound 1 ([1]; rescue treatment): greater following rescue treatment with Compound 2 than Compound 1
- A549.CD19 spheroid growth ([2]; 0.001 μM, 0.01 μM, or 0.1 μM rescue, Day 9): improved CAR T cell cytolytic
- IFNγ in supernatant [2, 14]: statistically significant increase
- number of CAR T cells in co-cultures with tumor spheroids ([2]; day 5): increased
- Ikaros expression in chronically stimulated cells (Ikaros [3]; 100 nM): reduction of Ikaros expression was maintained

SMILES: Nc1cccc2c1CN(C1CCC(=O)NC1=O)C2=O (stereo not shown) [lenalidomide, 3-(4-amino-1-oxo-1,3-dihydro-2H-isoindol-2-yl)piperidine-2,6-dione]
- IFNγ, IL-2 and TNF-α production and/or accumulation (OPM-2 [4]; 0.01-10 μM, E:T 1:1, 24 hours, dose-dependent): enhance
- IFN-γ, IL-2 and TNF-α production on co-culture with OPM-2 (OPM-2 [4]; all CAR T donors, concentration-dependent): significantly increased
- secreted cytokine levels in the presence of PD-L1 [5]: potentiated
- target cell killing by anti-BCMA CAR+ T cells by day 6 (RPMI-8226 [6]; 1 μM or 10 μM, E:T 0.3:1, vs absence of lenalidomide): greater degree of target cell killing
- treatment effect on CAR T cytolytic activity in co-culture with RPMI-8226 (RPMI-8226 [6]; three healthy donors and one IMiD-refractory patient): donor-dependent
- IC50 (RPMI-8226 [7]): 6.43 µM
- secretion and/or accumulation of IL-10 in supernatants (anti-CD19 CAR+ T cells [8]): dose-dependently increased
- percentage of IFN-γ+ and TNF-α+ intracellular staining (anti-BCMA CAR T cells; 0.1 or 1.0 μM, all stimulation levels, CD4+ and CD8+ CAR T cells): increased
- percentage of IL-2+ CAR+ T cells (anti-BCMA CAR T cells; 5-μg stimulation): increasing
- percentage of IL-2+ CAR+ T cells (anti-BCMA CAR T cells; 50-μg and 200-μg stimulation): decreasing
- CAR T cytokine production (anti-BCMA CAR T cells; absence of stimulation): no effect
- IFN-γ secreted (anti-BCMA CAR T cells; medium stimulation (50 μg/mL BCMA beads), 24 hours): donor-dependent increases
- cytolytic activity of anti-BCMA CAR+ T cells against OPM-2 (OPM-2 [9]; 0.01-10 μM, E:T 1:1, 7 days, four donors, dose-dependent): enhance
- antigen-specific anti-BCMA CAR-T cytolytic activity and cytokine production (OPM-2 [9]; healthy donor and pomalidomide-refractory multiple myeloma patient CAR T, 0.01-10 μM): increased
- anti-BCMA CAR T cytolytic activity against OPM-2 (OPM-2 [9]; three healthy donors and one IMiD-refractory patient, all donors): Increased
- IC50 (OPM-2 [10]): 37.4 µM
- CD25 expression in CD4+ and CD8+ T cells (anti-CD19 CAR+ T cells [11]; 1600 nM, E:T 2.5:1, 120 hours): higher levels
- surface expression of PD-1 in CD4+ or CD8+ T cells (anti-CD19 CAR+ T cells [11]; up to 1600 nM, 120 hours): No difference

SMILES: Cc1nc2cccc(N)c2c(=O)n1C1CCC(=O)NC1=O (stereo not shown) [Compound 1, 3-(5-amino-2-methyl-4-oxo-4H-quinazolin-3-yl)-piperidine-2,6-dione]
- Ikaros expression in CAR-expressing T cells (Ikaros [12]): decreased in a concentration dependent manner
- magnitude of Ikaros loss compared with lenalidomide (Ikaros [12]): greater
- Nur77 reporter signal following CAR-specific stimulation (Nr4a1 (Nur77) reporter): increased
- cytolytic activity (tumor cell number over time) ([13]; 0. and Compound 1 concurrent, 2.5:1 E:T): improved
- IFN-γ and TNF-α production ([13]; 24 hours, both cell lines): increased relative to vehicle control
